Among the data in ChEMBL document CHEMBL1764992, “RNA-binding and viral reverse transcriptase inhibitory activity of a novel cationic diamino acid-based peptide” (J Med Chem, 2011) are inhibition and Activity values, retold here.

The source made the active and inactive calls. The rule behind the calls is not given here.

The target of assay [1] is Human immunodeficiency virus type 1 reverse transcriptase (Human immunodeficiency virus 1) (UniProt Q72547). The assay can be described thus: Inhibition of HIV1 reverse transcriptase at 0.5 to 1 ug after 1 hr by RT-PCR analysis relative to control.
The test system of assay [2] is Nucleic Acid. Description: Binding affinity to poly(U) RNA by ultraviolet spectra analysis. It is filed as nucleic-acid assay.
Assay [3] concerns Nucleic Acid. The assay can be described thus: Binding affinity to dT12 DNA by ultraviolet spectra analysis. It is filed as nucleic-acid assay.
The subject of assay [4] is Nucleic Acid. Description: Binding affinity to poly(U) RNA by circular dichroism spectra analysis. It is filed as nucleic-acid assay.
The subject of assay [5] is Nucleic Acid. The assay can be described thus: Binding affinity to dT12 DNA by circular dichroism spectra analysis. It is filed as nucleic-acid assay. For orientation: CD spectra are sensitive to the conformation of chiral molecules.
Assay [6] relates to Moloney murine leukemia virus. Description: Inhibition of Moloney murine leukemia virus reverse transcriptase at 0.5 ug after 1 hr by RT-PCR analysis relative to control.
The test system of assay [7] is Moloney murine leukemia virus. Description: Inhibition of Moloney murine leukemia virus reverse transcriptase at 1 ug after 1 hr by RT-PCR analysis relative to control.

In general, inhibition refers to the drop in the measured response relative to a control, in per cent. Read a low inhibition as a weak effect. In the case of `Cc1cn(CC(=O)NCCCC[C@H](N)C(=O)NCC[C@H](N)C(=O)NCCCC[C@H](N)C(=O)NCC[C@H](N)C(=O)NCCCC[C@H](N)C(=O)NCC[C@H](N)C(=O)NCCCC[C@H](N)C(=O)NCC[C@H](N)C(=O)NCCCC[C@H](N)C(=O)NCC[C@H](N)C(=O)NCCCC[C@H](N)C(=O)NCC[C@H](N)C(=O)NCCCC[C@H](N)C(=O)NCC[C@H](N)C(=O)NCCCC[C@H](N)C(=O)NCC[C@H](N)C(=O)NCCCC[C@H](N)C(N)=O)c(=O)[nH]c1=O`, the inhibition in assay [1] is 60%; in assay [6], 30%; in assay [7] it was 18%. The outcome with Nucleic Acid [2] and in the assay on Nucleic Acid [4] was Active. Moreover, the outcome in the assay on Nucleic Acid [3] and with Nucleic Acid [5] was inactive.
